Assay results reported in patent publication US5817332A, “Transdermal drug delivery system” (priority 1994, dated 1998).
Converted amounts (≈) assume the structure as drawn. Read-outs that look alike come from different tables or passages of the source.

How the values were obtained:
[1] = Phase-solubility of dexmedetomidine in aqueous 2-HP-β-CD solutions (phosphate buffers, 32 °C); type: physicochemical; conditions: for solubility at 240 h: phosphate buffer with 2-hp-β-cd, 32° C., read-out: DEX solubility
Description: The excess amount of the drug was added to pH 6.0, 7.0 and 8.0 phosphate buffers (142 mM) and the pHs of the suspensions were readjusted with 0.2M NaOH. The suspensions were shaken at 32° C. in a water bath for 10 days. After equilibration, the saturated solutions of DEX were filtered, diluted and the concentrations of DEX were analyzed by RP-HPLC at 210 nm.

[2] = In vitro release of DEX from silicone depot patches in diffusion cells; type: physicochemical; conditions: trisodium phosphate in device core
Description: The effect of cyclodextrin on the release rate of DEX was determined using reservoir-type silicone depot patches. Typical composition of the reservoir containing the drug and CD in molar ratio 1:1 was:
______________________________________
DEX HCl 200 μg (170 μg DEX base)
Tris-buffer (TRIS), trisodium phosphate (TP), disodium phosphate (DP), sodium phosphate (MP) or the mixture of disodium and sodium phosphates (50/50) (MP/DP) were used to buffer the devices. 2-HP-β-CD was added to the device in three different ways:
1) without precomplexation with DEX
2) using an inclusion complex of DEX and CD prepared by grinding
3) using an inclusion complex of DEX and CD prepared by spray-drying
In some patches the amount of pH-adjusting agent (DP) was decreased from 1600 μg to 200 μg or 2-HP-γ-CD was used instead of β-derivative.
Silicone membranes for the devices were made of MDX-4-4210 medical grade elastomer (Dow Corning, Midland, […].) by mixing 10% (w/w) MDX-4240 curing agent with the elastomer. […]
In vitro release of DEX from the devices was determined in diffusion cells at 34 ±1° C. […] At predetermined times, samples of 250 μl were withdrawn, replaced by fresh buffer solution, and the concentration of DEX in the samples was analyzed by RP-HPLC. After each release experiment pH in the devices was measured with a microelectrode.

[3] = as pH is increased; cited from earlier work

Structure (SMILES): Cc1cccc([C@H](C)c2cnc[nH]2)c1C [DEX, dexmedetomidine]
- influence of 2-HP-β-CD on solubility of DEX (in words) ([1]; pH 6.0, 7.0 and 8.0): the greatest as the pH of the solutions was highest
- improvement of the solubility of DEX by addition of 50% (m/V) 2-HP-β-CD ([1]; pH 6.0, 7.0 and 8.0 buffers): 19-99 times
- solubility at 240 h ([1]; pH 6, pH 6, 2-HP-β-CD 5 % (m/V) (35 mM)): 7060 µg/mL (≈ 35.3 mM)
- solubility at 240 h ([1]; pH 6, pH 6, 2-HP-β-CD 10 % (m/V) (70 mM)): 10000 µg/mL (≈ 50 mM)
- solubility at 240 h ([1]; pH 6, pH 6, 2-HP-β-CD 15 % (m/V) (105 mM)): 12800 µg/mL (≈ 63.9 mM)
- solubility at 240 h ([1]; pH 6, pH 6, 2-HP-β-CD 30 % (m/V) (209 mM)): 20900 µg/mL (≈ 105 mM)
- solubility at 240 h ([1]; pH 6, pH 6, 2-HP-β-CD 50 % (m/V) (349 mM)): 36800 µg/mL (≈ 184 mM)
- solubility at 240 h ([1]; pH 7, pH 7, 2-HP-β-CD 5 % (m/V) (35 mM)): 1600 µg/mL (≈ 7.99 mM)
- solubility at 240 h ([1]; pH 7, pH 7, 2-HP-β-CD 10 % (m/V) (70 mM)): 3040 µg/mL (≈ 15.2 mM)
- solubility at 240 h ([1]; pH 7, pH 7, 2-HP-β-CD 15 % (m/V) (105 mM)): 4910 µg/mL (≈ 24.5 mM)
- solubility at 240 h ([1]; pH 7, pH 7, 2-HP-β-CD 30 % (m/V) (209 mM)): 9330 µg/mL (≈ 46.6 mM)
- solubility at 240 h ([1]; pH 7, pH 7, 2-HP-β-CD 50 % (m/V) (349 mM)): 12800 µg/mL (≈ 64.1 mM)
- solubility at 240 h ([1]; pH 8, pH 8, 2-HP-β-CD 5 % (m/V) (35 mM)): 1230 µg/mL (≈ 6.15 mM)
- solubility at 240 h ([1]; pH 8, pH 8, 2-HP-β-CD 10 % (m/V) (70 mM)): 2260 µg/mL (≈ 11.3 mM)
- solubility at 240 h ([1]; pH 8, pH 8, 2-HP-β-CD 15 % (m/V) (105 mM)): 3770 µg/mL (≈ 18.8 mM)
- solubility at 240 h ([1]; pH 8, pH 8, 2-HP-β-CD 30 % (m/V) (209 mM)): 7200 µg/mL (≈ 35.9 mM)
- solubility at 240 h ([1]; pH 8, pH 8, 2-HP-β-CD 50 % (m/V) (349 mM)): 13300 µg/mL (≈ 66.2 mM)
- increase of DEX release rate by trisodium phosphate [2]: over 180 times
- aqueous solubility (in words) [3]: drops dramatically
